pIC50: −log10 of the molar value. Read-outs that look alike come from different tables or passages of the source.

In experiment [1] the test system is Locomotor Activity in Mice. The experiment in a line: Inhibition of locomotor activity in mice. Format: in vivo. Conditions: for ED50: Mus musculus. As for the experimental part:
(§1) The compounds of Formula I are valuable dopaminergic agents. […] Thus, the compounds of Formula I were tested for their ability to inhibit locomotor activity in mice and rats, a measure of antipsychotic activity, according to the assay described by J. R. McLean, et al, Pharmacology, Biochemistry and Behavior, Vol. 8, pages 97-99 (1978); for their ability to bind to dopamine receptors as measured by their inhibition of [^3 H]spiroperidol binding in a receptor assay described by D. Grigoriadis and P. Seeman, Journal of Neurochemistry, Vol. 44, pages 1925-1935 (1985); and for their ability to effect dopamine synthesis in rats according to the protocol described by J. R. Walters and R. H. Roth, Naunyn-Schmiedebero's Archives of Pharmacology, Vol. 296, pages 5-14 (1976). The above test methods are incorporated herein by reference. The data in the table show the dopaminergic activity of representative compounds of Formula I.

Experiment [2] deals with dopamine receptors. The experiment in a line: Inhibition of [^3 H] spiroperidol binding. As to the method:
as §1

The subject of experiment [3] is Brain Dopamine Synthesis. Put plainly: % effects on brain dopamine synthesis in rats. Format: in vivo. Conditions: Rattus norvegicus. As to the method: as §1
Setting [4] is: ip, read-out: Inhibition of Locomotor Activity in Mice ED50, mice, IP (Table 2).
Setting [5] is: ip, read-out: Inhibition of Locomotor Activity in Mice ED50, mice, IP (Table 1).
[6] abbreviates: ip, read-out: % Effects on Brain Dopamine Synthesis in Rats, rats, 10 mg/kg, IP (Table 1).
Where [7] appears, read: rats, 10 mg/kg, IP (Table 1), read-out: % Effects on Brain Dopamine Synthesis in Rats.
Where [8] appears, read: mice, IP (Table 1), read-out: Inhibition of Locomotor Activity in Mice ED50.

In the case of `C1=C(c2ccccc2)CCC(N2CC=C(c3ccccc3)CC2)C1` (racemic) [A, (±)-1,2,3,6-tetrahydro-4-phenyl-1-(4-phenyl-3-cyclohexen-1-yl)pyridine, reference compound], the 50% effective dose (ED50) in experiment [1] (setting [4]) was found to be 12.9 mg/kg. This molecule also showed a pIC50 in experiment [2] (Table 2) of 5.97.

In the case of `C1=C(c2ccccc2)CCC(CN2CC=C(c3ccccc3)CC2)C1` (racemic) [B, (±)-1,2,3,6-tetrahydro-4-phenyl-1-[(4-phenyl-3-cyclohexen-1-yl)methyl]pyridine, reference compound], the ED50 in experiment [1] (setting [4]) worked out at 13.2 mg/kg. This molecule also showed a pIC50 in experiment [2] (Table 2) of 6.00.

Consider `C1=C(c2ccccc2)CCC(CCN2CC=C(c3ccccc3)CC2)C1` (racemic) [Compound C, (±)-1,2,3,6-tetrahydro-4-phenyl-1-[2-(4-phenyl-3-cyclohexen-1-yl)ethyl]pyridine, reference compound], for which the median effective dose (ED50) in experiment [1] (setting [4]) was found to be 5.8 mg/kg. For the same molecule, in experiment [2] (Table 2), the negative logarithm of the IC50 (pIC50) is 5.10.

Take `C1=C(c2ccccc2)CCN(CCC2CCC=C(c3ccccc3)C2)C1` (racemic) [Compound E, (±)-1,2,3,6-tetrahydro-4-phenyl-1-[2-(3-phenyl-3-cyclohexen-1-yl)ethyl]pyridine, reference compound]: the ED50 in experiment [1] (setting [4]) amounted to 10.9 mg/kg.

Turning to `C1=C(c2ccccc2)CCC(CN2CCN(c3ccccn3)CC2)C1` (racemic) [Compound G, (±)-1-[(4-phenyl-3-cyclohexen-1-yl)methyl]-4-(2-pyridinyl)piperazine, reference compound], in experiment [1] (mice, IP (Table 2), read-out: Inhibition of Locomotor Activity in Mice ED50), the 50% effective dose (ED50) was determined as 25.9 mg/kg. Moreover, in experiment [2] (Table 2), the negative logarithm of the IC50 (pIC50) was 4.95.

Take `C1=C(c2ccccc2)CCN(C2CCC=C(c3ccccc3)C2)C1` (racemic) [D, (±)-1,2,3,6-tetrahydro-4-phenyl-1-(3-phenyl)-3-cyclohexen-1-yl)pyridine, reference compound]: the ED50 in experiment [1] (setting [4]) turned out to be 30 mg/kg. Further, the pIC50 in experiment [2] (Table 2) was 5.04.

Take `C1=C(c2ccccc2)CCCC1CN1CC=C(c2ccccc2)CC1` (racemic) [Example 1a, (±)-1,2,3,6-Tetrahydro-4-phenyl-1-[(3-phenyl-2-cyclohexen-1-yl)methyl]pyridine]: in experiment [1] (setting [5]), the median effective dose (ED50) was 2.5 mg/kg. Besides, in experiment [3] (setting [6]), the change in vivo at 10 mg/kg was -34%. Further, the pIC50 in experiment [2] (Table 1) was 6.38.

For `C1=C(c2ccccc2)CCN(CC2CCC=C(c3cccs3)C2)C1` (racemic) [Example 2, (±)-1,2,3,6-Tetrahydro-4-phenyl-1-[[3-(2-thienyl)-3-cyclohexen-1-yl]methyl]pyridine], in experiment [1] (setting [5]), the 50% effective dose (ED50) is 1.8 mg/kg. For the same molecule, the change in vivo at 10 mg/kg in experiment [3] (setting [6]) was -9%. In experiment [2] (Table 1), this molecule had a pIC50 of 6.69.

For the molecule `C1=C(c2ccccc2)CCN(CC2C=C(c3cccs3)CCC2)C1` (racemic) [Example 2a, (±)-1,2,3,6-Tetrahydro-4-phenyl-1-[[3-(2-thienyl)-2-cyclohexen-1-yl]methyl]pyridine], the ED50 in experiment [1] (setting [5]) turned out to be 2.3 mg/kg. Also, the pIC50 in experiment [2] (Table 1) was 6.40.

As to `Fc1ccc(C2=CCCC(CN3CC=C(c4ccccc4)CC3)C2)cc1` (racemic) [Example 3, (±)-1-[[3-(4-Fluorophenyl)-3-cyclohexen-1-yl]methyl]-1,2,3,6-tetrahydro-4-phenylpyridine], in experiment [1] (setting [5]), the 50% effective dose (ED50) was found to be 4.2 mg/kg. This molecule also gave a negative-log IC50 (pIC50) in experiment [2] (Table 1) of 7.05.

As to `Fc1ccc(C2=CC(CN3CC=C(c4ccccc4)CC3)CCC2)cc1` (racemic) [Example 3a, (±)-1-[[3-(4-Fluorophenyl)-2-cyclohexen-1-yl]methyl]-1,2,3,6-tetrahydro-4-phenylpyridine], in experiment [1] (setting [5]), the median effective dose (ED50) worked out at 2.9 mg/kg. In addition, the change in vivo at 10 mg/kg in experiment [3] (setting [6]) is -41%. The pIC50 in experiment [2] (Table 1) was 5.97.

`Fc1ccc(C2=CCCC(CN3CCN(c4ccccn4)CC3)C2)cc1` (racemic) [Example 5, (±)-1-[[3-(4-Fluorophenyl)-3-cyclohexen-1-yl]methyl]-4-(2-pyridinyl)piperazine]: in experiment [1] (setting [5]), the ED50 is 1.2 mg/kg. In experiment [3] (setting [7]), the change in vivo at 10 mg/kg was -58%. Besides, the pIC50 in experiment [2] (Table 1) is 6.84.

With `Fc1ccc(C2=CC(CN3CCN(c4ccccn4)CC3)CCC2)cc1` (racemic) [Example 5a, (±)-1-[[3-(4-Fluorophenyl)-2-cyclohexen-1-yl]methyl]-4-(2-pyridinyl)piperazine], the ED50 in experiment [1] (setting [8]) stood at 2.2 mg/kg. The change in vivo at 10 mg/kg in experiment [3] (setting [7]) is -48%. This molecule also showed a pIC50 in experiment [2] (Table 1) of 6.55.

Take `C1=C(c2ccccc2)CC(CN2CCN(c3ccccc3)CC2)CC1.Cl.Cl` (racemic) [Example 22, (±)-1-phenyl-4-[(3-phenyl-3-cyclohexen-1-yl)methyl]-piperazine dihydrochloride]: in experiment [1] (setting [8]), the ED50 came to 2.1 mg/kg. This molecule showed a pIC50 in experiment [2] (Table 1) of 6.37.

In the case of `C1=C(c2ccccc2)CC(CN2CCN(c3ncccn3)CC2)CC1` (racemic) [Example 23, (±)-2-[4-[[3-phenyl-3-cyclohexen-1-yl)methyl]-1-piperazinyl]pyrimidine], the 50% effective dose (ED50) in experiment [1] (setting [8]) is 8.5 mg/kg. In experiment [2] (Table 1), this molecule showed a pIC50 of 6.45.

Turning to `C1=C(c2ccccc2)CC(CN2CC=C(c3cccs3)CC2)CC1.Cl` (racemic) [Example 24, (±)-1,2,3,6-tetrahydro-1-[(3-phenyl-3-cyclohexen-1-yl)methyl]-4-(2-thienyl)pyridine monohydrochloride], the ED50 in experiment [1] (setting [5]) was 1.5 mg/kg. For the same molecule, in experiment [2] (Table 1), the pIC50 was 6.77.

As for `C1=C(c2ccccc2)CC(CN2CCN(c3ccccn3)CC2)C1` (racemic) [Example 25, (±)-1-[(3-phenyl-3-cyclopenten-1-yl)methyl]-4-(2-pyridinyl)piperazine], the ED50 in experiment [1] (setting [8]) is 2.7 mg/kg. In addition, in experiment [3] (setting [7]), the change in vivo at 10 mg/kg was -45%. In experiment [2] (Table 1), this molecule showed a pIC50 of 6.72.

Turning to `C1=C(c2ccccc2)CCN(CC2CCC=C(c3c[nH]c4ccccc34)C2)C1` (racemic) [Example 26, (±)-3-[5-[(3,6-dihydro-4-phenyl-1(2H)-pyridinyl)methyl]-1-cyclohexen-1-yl]-1H-indole], the ED50 in experiment [1] (setting [5]) is 2 mg/kg. The change in vivo at 10 mg/kg in experiment [3] (setting [6]) is -23%. This molecule also had a negative logarithm of the IC50 (pIC50) in experiment [2] (Table 1) of 6.54.

With `Cl.Clc1ccc(C2=CCC[C@@H](CN3CC=C(c4ccccc4)CC3)C2)cc1` [Example 7, (R)-1-[[3-(4-chlorophenyl)-3-cyclohexen-1-yl]methyl]-1,2,3,6-tetrahydro-4-phenylpyridine monohydrochloride], the 50% effective dose (ED50) in experiment [1] (setting [5]) amounted to 4.4 mg/kg. In experiment [3] (setting [6]), the change in vivo at 10 mg/kg is -18%.

On to `Clc1ccc(C2=C[C@H](CN3CC=C(c4ccccc4)CC3)CCC2)cc1` [Example 7a, (R)-1-[[3-(4-chlorophenyl)-2-cyclohexen-1-yl]methyl]-1,2,3,6-tetrahydro-4-phenylpyridine], for which the ED50 in experiment [1] (setting [5]) turned out to be 7.5 mg/kg. Besides, the negative-log IC50 (pIC50) in experiment [2] (Table 1) was 5.63.

Regarding `C1=C(c2ccccc2)CCN(C[C@@H]2CCC=C(c3cncnc3)C2)C1.Cl` [Example 14, (R)-5-[5-[(3,6-dihydro-4-phenyl-1(2H)-pyridinyl)methyl]-1-cyclohexen-1-yl]pyrimidine monohydrochloride], the median effective dose (ED50) in experiment [1] (setting [5]) is 0.4 mg/kg. Moreover, the pIC50 in experiment [2] (Table 1) was 6.36.

As for `C1=C(c2cncnc2)CCC[C@H]1CN1CC=C(c2ccccc2)CC1.Cl.Cl` [Example 14a, (R)-5-[3-[(3,6-dihydro-4-phenyl-1(2H)-pyridinyl)methyl]-1-cyclohexen-1-yl]pyrimidine dihydrochloride], the ED50 in experiment [1] (setting [5]) came to 0.07 mg/kg.

As for `C1=C(c2ccsc2)CCC[C@H]1CN1CC=C(c2ccccc2)CC1` [Example 15, (R)-1,2,3,6-tetrahydro-4-phenyl-1-[[3-(3-thienyl)-2-cyclohexen-1-yl]methyl]pyridine], the ED50 in experiment [1] (setting [5]) is 1.3 mg/kg. The molecule further showed a pIC50 in experiment [2] (Table 1) of 6.60.

Consider `CN(C)c1ccc(C2=C[C@H](CN3CC=C(c4ccccc4)CC3)CCC2)cc1` [Example 16a, (R)-4-[3-[(3,6-dihydro-4-phenyl-1(2H)-pyridinyl)methyl]-1-cyclohexen-1-yl]-N,N-dimethylbenzeneamine], for which the ED50 in experiment [1] (setting [5]) turned out to be 0.7 mg/kg. Besides, the negative logarithm of the IC50 (pIC50) in experiment [2] (Table 1) is 6.18.

As to `C1=C(c2cnc3ccccc3c2)CCC[C@H]1CN1CC=C(c2ccccc2)CC1` [Example 17a, (R)-3-[3-[(3,6-dihydro-4-phenyl-1(2H)-pyridinyl)methyl]-1-cyclohexen-1-yl]quinoline], the ED50 in experiment [1] (setting [5]) was 1.7 mg/kg. This molecule also had a negative-log IC50 (pIC50) in experiment [2] (Table 1) of 5.96.

`C1=C(c2ccccc2)CCN(C[C@@H]2CCC=C(c3ccc4c(c3)OCO4)C2)C1.Cl` [Example 18, (R)-1-[[3-(1,3-benzodioxol-5-yl)-3-cyclohexen-1-yl]methyl]-1,2,3,6-tetrahydro-4-phenylpyridine monohydrochloride]: the ED50 in experiment [1] (setting [5]) was 0.8 mg/kg. In addition, the negative logarithm of the IC50 (pIC50) in experiment [2] (Table 1) was 6.36.

Consider `C1=C(c2ccccc2)CCN(C[C@@H]2CCC[C@@H](c3ccccc3)C2)C1.Cl` [Example 20a, (1R-trans) 1,2,3,6-tetrahydro-4-phenyl-1-[(3-phenylcyclohexyl)methyl]pyridine monohydrochloride], for which the ED50 in experiment [1] (setting [5]) is 0.5 mg/kg. In experiment [2] (Table 1), this molecule gave a negative-log IC50 (pIC50) of 6.06.

As for “(R)-1,2,3,6-tetrahydro-1-[[3-(2-methylphenyl)-2-cyclohexen-1-yl]methyl]-4-phenylpyridine monohydrochloride compound with (R)-1,2,3,6-tetrahydro-1-[[3-(2-methylphenyl)-3-cyclohexen-1-yl]methyl]-4-phenylpyridine [Example 13]”, in experiment [1] (mice, IP (Table 1)), the “Inhibition of Locomotor Activity in Mice ED50” value amounted to 2.3 mg/kg.

Usually ED50 stands for the dose at which the effect has come halfway, by size or by number of responders. Broadly, the pIC50 is −log10 of the IC50, conventionally taken in molar units. A high value points to a low IC50.

(Values after US5314896A, “1,3-substituted cycloalkenes and cycloalkanes as central nervous system agents” (priority 1992, dated 1994).)
